In patent publication US9540391B2, “Isomannide derivatives as inhibitors of soluble epoxide hydrolase” (SANOFI, priority 2013, dated 2017) one finds IC50 data, which are given here for 28 compounds.

This assay concerns the target T1, recombinant sEH (Homo sapiens, UniProt P34913).
T1 construct: made in house; host or cells: Sf9 insect cells
T1 sequence (P34913 1-555): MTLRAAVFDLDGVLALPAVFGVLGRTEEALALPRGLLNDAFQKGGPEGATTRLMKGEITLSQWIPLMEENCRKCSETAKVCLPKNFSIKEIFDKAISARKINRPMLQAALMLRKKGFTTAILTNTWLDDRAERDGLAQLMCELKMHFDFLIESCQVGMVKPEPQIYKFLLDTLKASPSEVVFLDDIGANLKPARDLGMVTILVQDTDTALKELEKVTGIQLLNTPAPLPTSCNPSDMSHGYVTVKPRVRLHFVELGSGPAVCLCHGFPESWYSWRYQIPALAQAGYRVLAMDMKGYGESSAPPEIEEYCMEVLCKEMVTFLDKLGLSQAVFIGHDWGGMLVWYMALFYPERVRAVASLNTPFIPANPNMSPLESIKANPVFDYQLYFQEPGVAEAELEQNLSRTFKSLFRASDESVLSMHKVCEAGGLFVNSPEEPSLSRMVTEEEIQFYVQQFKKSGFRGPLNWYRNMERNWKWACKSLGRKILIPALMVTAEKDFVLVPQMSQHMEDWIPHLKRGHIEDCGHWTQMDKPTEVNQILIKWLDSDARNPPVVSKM
The assay can be described thus: biochemical screening assay for inhibition of soluble epoxide hydrolase (fluorometric, Phome substrate). An outline of the steps: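 Reading fluorescence before substrate addition and after completion corrected for autofluorescence. Reaction: 5 μM Phome, 2 nM recombinant human sEH (Sf9-expressed), compound 0.0001–10 μM, 25 mM Hepes with 0.01% albumin, 15 min pre-incubation then 60 min at 30 °C; IC50 derived from % inhibition.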

Where a name gives a salt, the structure may show the parent alone.

For `CN1CCN(C(=O)c2ccc(O[C@H]3CO[C@H]4[C@@H]3OC[C@@H]4NC(=O)NC3CCCCC3)cc2)CC1` [Example 119, 1-Cyclohexyl-3-{(3S,3aR,6S,6aS)-6-[4-(4-methyl-piperazine-1-carbonyl)-phenoxy]-hexahydro-furo[3,2-b]furan-3-yl}-urea; trifluoroacetate], the IC50 stood at 21 nM. In the case of `O=C(NC1CCCCC1)N[C@H]1CO[C@H]2[C@@H]1OC[C@@H]2Oc1ccc(C(=O)N2CCOCC2)cc1` [Example 120, 1-Cyclohexyl-3-{(3S,3aR,6S,6aS)-6-[4-(morpholine-4-carbonyl)-phenoxy]-hexahydro-furo[3,2-b]furan-3-yl}-urea] it was 7 nM; in that of `Cc1nc(-c2ccc(O[C@H]3CO[C@H]4[C@@H]3OC[C@@H]4NC(=O)NC3CCCCC3)cc2)no1` [Example 121, 1-Cyclohexyl-3-{(3S,3aR,6S,6aS)-6-[4-(5-methyl-[1,2,4]oxadiazol-3-yl)-phenoxy]-hexahydro-furo[3,2-b]furan-3-yl}-urea], 1 nM; in that of `CCC(OC)(c1cccc(O[C@H]2CO[C@H]3[C@@H]2OC[C@@H]3NC(=O)NC2CCCCC2)c1)c1nccs1` (stereo partly drawn) [Example 122, 1-Cyclohexyl-3-{(3S,3aR,6S,6aS)-6-[3-(1-methoxy-1-thiazol-2-yl-propyl)-phenoxy]-hexahydro-furo[3,2-b]furan-3-yl}-urea], 2 nM. In the case of `O=C(NC1CCCCC1)N[C@H]1CO[C@H]2[C@@H]1OC[C@@H]2Oc1ccccc1CN1CCOCC1` [Example 123, 1-Cyclohexyl-3-[(3S,3aR,6S,6aS)-6-(2-morpholin-4-ylmethyl-phenoxy)-hexahydro-furo[3,2-b]furan-3-yl]-urea; trifluoroacetate] it was 4 nM. `CC1(c2ccc(O[C@H]3CO[C@H]4[C@@H]3OC[C@@H]4NC(=O)NC3CCCCC3)cc2)CCCCC1` [Example 124, 1-Cyclohexyl-3-{(3S,3aR,6S,6aS)-6-[4-(1-methyl-cyclohexyl)-phenoxy]-hexahydro-furo[3,2-b]furan-3-yl}-urea]: the half-maximal inhibitory concentration (IC50) was 4 nM. As for `O=C(NC1CCCCC1)N[C@H]1CO[C@H]2[C@@H]1OC[C@@H]2Oc1cccc(C(F)(F)F)c1` [Example 125, 1-Cyclohexyl-3-[(3S,3aR,6S,6aS)-6-(3-trifluoromethyl-phenoxy)-hexa-hydro-furo[3,2-b]furan-3-yl]-urea], the IC50 was determined as 3 nM. In the case of `O=C(NC1CCCCC1)N[C@H]1CO[C@H]2[C@@H]1OC[C@@H]2Oc1ccc(C(=O)N2CCNCC2)cc1` [Example 126, 1-Cyclohexyl-3-{(3S,3aR,6S,6aS)-6-[4-(piperazine-1-carbonyl)-phenoxy]-hexahydro-furo[3,2-b]furan-3-yl}-urea; trifluoroacetate] it was 30 nM. For the compound `O=C(NC1CCCCC1)N[C@H]1CO[C@H]2[C@@H]1OC[C@@H]2Oc1cccc(Oc2ccccn2)c1` [Example 127, 1-Cyclohexyl-3-{(3S,3aR,6S,6aS)-6-[3-(pyridin-2-yloxy)-phenoxy]-hexa-hydro-furo[3,2-b]furan-3-yl}-urea], the IC50 worked out at 7 nM.

`O=C(NC1CCCCC1)N[C@H]1CO[C@H]2[C@@H]1OC[C@@H]2Oc1cccc(CNC2CC2)c1` [Example 128, 1-Cyclohexyl-3-[(3S,3aR,6S,6aS)-6-(3-cyclopropylaminomethyl-phenoxy)-hexahydro-furo[3,2-b]furan-3-yl]-urea; trifluoroacetate]: the IC50 came to 10 nM. To `Cc1nc(-c2cccc(O[C@H]3CO[C@H]4[C@@H]3OC[C@@H]4NC(=O)NC3CCCCC3)c2)no1` [Example 129, 1-Cyclohexyl-3-{(3S,3aR,6S,6aS)-6-[3-(5-methyl-[1,2,4]oxadiazol-3-yl)-phenoxy]-hexahydro-furo[3,2-b]furan-3-yl}-urea] belongs 2 nM; to `O=C(NC1CCCCC1)N[C@H]1CO[C@H]2[C@@H]1OC[C@@H]2Oc1cccn2ccnc12` [Example 130, 1-Cyclohexyl-3-[(3S,3aR,6S,6aS)-6-(imidazo[1,2-a]pyridin-8-yloxy)-hexa-hydro-furo[3,2-b]furan-3-yl]-urea], 38 nM; to `O=C(NC1CCCCC1)N[C@H]1CO[C@H]2[C@@H]1OC[C@@H]2Oc1cc(F)ccc1Cl` [Example 131, 1-[(3S,3aR,6S,6aS)-6-(2-Chloro-5-fluoro-phenoxy)-hexahydro-furo[3,2-b]furan-3-yl]-3-cyclohexyl-urea], 2 nM.

Turning to `O=C(NC1CCCCC1)N[C@H]1CO[C@H]2[C@@H]1OC[C@@H]2Oc1cccc(Cl)c1` [Example 132, 1-[(3S,3aR,6S,6aS)-6-(3-Chloro-phenoxy)-hexahydro-furo[3,2-b]furan-3-yl]-3-cyclohexyl-urea], the IC50 was determined as 2 nM.

Regarding `O=C(NC1CCCCC1)N[C@H]1CO[C@H]2[C@@H]1OC[C@@H]2Oc1cc(F)cc(F)c1` [Example 133, 1-Cyclohexyl-3-[(3S,3aR,6S,6aS)-6-(3,5-difluoro-phenoxy)-hexahydro-furo[3,2-b]furan-3-yl]-urea], the IC50 was below 1 nM.

Take `O=C(NC1CCCCC1)N[C@H]1CO[C@H]2[C@@H]1OC[C@@H]2Oc1ccccc1C(=O)N1CCOCC1` [Example 134, 1-Cyclohexyl-3-{(3S,3aR,6S,6aS)-6-[2-(morpholine-4-carbonyl)-phenoxy]-hexahydro-furo[3,2-b]furan-3-yl}-urea]: the IC50 stood at 20 nM.

In the case of `O=C(NC1CCCCC1)N[C@H]1CO[C@H]2[C@@H]1OC[C@@H]2Oc1ccccc1CN1CCCCC1` [Example 135, 1-Cyclohexyl-3-[(3S,3aR,6S,6aS)-6-(2-piperidin-1-ylmethyl-phenoxy)-hexahydro-furo[3,2-b]furan-3-yl]-urea; trifluoroacetate], the IC50 is 20 nM. With `O=C(NC1CCCCC1)N[C@H]1CO[C@H]2[C@@H]1OC[C@@H]2Oc1ccccc1CNCC1CCCO1` (stereo partly drawn) [Example 136, 1-Cyclohexyl-3-[(3S,3aR,6S,6aS)-6-(2-{[(tetrahydro-furan-2-ylmethyl)-ao]-methyl}-phenoxy)-hexahydro-furo[3,2-b]furan-3-yl]-urea; trifluoroacetate], the IC50 is 220 nM.

Turning to `O=C(NC1CCCCC1)N[C@H]1CO[C@H]2[C@@H]1OC[C@@H]2Oc1cccc2ccc(N3CCCC3)nc12` [Example 137, 1-Cyclohexyl-3-[(3S,3aR,6S,6aS)-6-(2-pyrrolidin-1-yl-quinolin-8-yloxy)-hexahydro-furo[3,2-b]furan-3-yl]-urea; trifluoroacetate], the IC50 came to 4 nM. To `O=C(NC1CCCCC1)N[C@H]1CO[C@H]2[C@@H]1OC[C@@H]2Oc1ccc(Br)cc1` [Example 138, 1-[(3S,3aR,6S,6aS)-6-(4-Bromo-phenoxy)-hexahydro-furo[3,2-b]furan-3-yl]-3-cyclohexyl-urea] belongs 3 nM; to `O=C(NC1CCCCC1)N[C@H]1CO[C@H]2[C@@H]1OC[C@@H]2Oc1cccc(Br)c1` [Example 139, 1-[(3S,3aR,6S,6aS)-6-(3-Bromo-phenoxy)-hexahydro-furo[3,2-b]furan-3-yl]-3-cyclohexyl-urea], 2 nM. To `O=C(NC1CCCCC1)N[C@H]1CO[C@H]2[C@@H]1OC[C@@H]2Oc1cccc([N+](=O)[O-])c1` [Example 140, 1-Cyclohexyl-3-[(3S,3aR,6S,6aS)-6-(3-nitro-phenoxy)-hexahydro-furo[3,2-b]furan-3-yl]-urea] belongs 3 nM; to `CCOC(=O)c1cccc(O[C@H]2CO[C@H]3[C@@H]2OC[C@@H]3NC(=O)NC2CCCCC2)c1` [Example 141, 3-[(3S,3aS,6S,6aR)-6-(3-Cyclohexyl-ureido)-hexahydro-furo[3,2-b]furan-3-yloxy]-benzoic acid ethyl ester], 2 nM. For the compound `O=C(NC1CCCCC1)N[C@H]1CO[C@H]2[C@@H]1OC[C@@H]2Oc1cccc(N2CCNCC2)c1` [Example 142, 1-Cyclohexyl-3-[(3S,3aR,6S,6aS)-6-(3-piperazin-1-yl-phenoxy)-hexahydro-furo[3,2-b]furan-3-yl]-urea; trifluoroacetate], the IC50 was determined as 30 nM. `NC(=O)c1cccc(O[C@H]2CO[C@H]3[C@@H]2OC[C@@H]3NC(=O)NC2CCCCC2)c1` [Example 143, 3-[(3S,3aS,6S,6aR)-6-(3-Cyclohexyl-ureido)-hexahydro-furo[3,2-b]furan-3-yloxy]-benzamide]: the IC50 was 6 nM. For `O=C(NC1CCCCC1)N[C@H]1CO[C@H]2[C@@H]1OC[C@@H]2Oc1cccc2c1CCC2=O` [Example 144, 1-Cyclohexyl-3-[(3S,3aR,6S,6aS)-6-(1-oxo-indan-4-yloxy)-hexahydro-furo[3,2-b]furan-3-yl]-urea], the IC50 is 1 nM.

Regarding `CC1CSc2c(O[C@H]3CO[C@H]4[C@@H]3OC[C@@H]4NC(=O)NC3CCCCC3)csc21` (stereo partly drawn) [Example 145, 1-Cyclohexyl-3-[(3S,3aR,6S,6aS)-6-(6-methyl-5,6-dihydro-thieno[3,2-b]thiophen-3-yloxy)-hexahydro-furo[3,2-b]furan-3-yl]-urea], the IC50 amounted to 14 nM. Consider `O=C(NC1CCCCC1)N[C@H]1CO[C@H]2[C@@H]1OC[C@@H]2Oc1ccc(F)c(Br)c1` [Example 146, 1-[(3S,3aR,6S,6aS)-6-(3-Bromo-4-fluoro-phenoxy)-hexahydro-furo[3,2-b]furan-3-yl]-3-cyclohexyl-urea], for which the IC50 is 2 nM.
